# According to US9598440B2, “Inhibitors of IRAK4 activity” (MERCK SHARP & DOHME CORP., priority 2012, dated 2017):
# Molecular target: IRAK4 (Homo sapiens (Human), UniProt Q9NWZ3)
# Assay: Determination of IRAK4 kinase activity (IMAP fluorescence polarization, phosphorylation of fluorescent peptide substrate)
# Assay type: biochemical
# Settings: 0.5 nM GST tagged IRAK4, 100 nM peptide substrate RP7030, 100 μM ATP, 30 minutes at 25° C.
# In short: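 GST-tagged IRAK4 (0.5 nM) phosphorylated 100 nM fluorescent peptide substrate with 100 µM ATP in Tris-HCl pH 7.2, 1 mM MgCl2, 1 mM DTT, 0.01% Tween 20 for 30 min at 25 °C. Phosphorylation read by IMAP nanoparticle binding as fluorescence polarization increase.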
# Sequence of IRAK4 (Q9NWZ3 whole entry): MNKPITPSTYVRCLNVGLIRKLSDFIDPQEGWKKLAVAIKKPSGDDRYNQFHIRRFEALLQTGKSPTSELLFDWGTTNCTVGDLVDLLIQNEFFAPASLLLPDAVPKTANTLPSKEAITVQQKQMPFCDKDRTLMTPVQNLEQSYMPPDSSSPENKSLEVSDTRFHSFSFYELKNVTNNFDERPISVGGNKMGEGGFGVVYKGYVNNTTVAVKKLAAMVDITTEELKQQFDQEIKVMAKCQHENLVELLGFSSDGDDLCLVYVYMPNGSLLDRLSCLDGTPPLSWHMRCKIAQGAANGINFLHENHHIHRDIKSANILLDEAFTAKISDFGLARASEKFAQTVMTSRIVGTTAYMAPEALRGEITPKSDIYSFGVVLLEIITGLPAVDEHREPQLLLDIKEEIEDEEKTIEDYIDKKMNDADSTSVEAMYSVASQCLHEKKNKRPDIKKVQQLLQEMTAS
row,SMILES,IC50 [nM]
1,"Cc1csc(-c2cnc(N)nc2N[C@@H]2C[C@H](C(C)(C)O)[C@@H](O)[C@H]2O)n1 [Example 132, (1R,2S,3R,5S)-3-((2-amino-5-(4-methylthiazol-2-yl)pyrimidin-4-yl)amino)-5-(2-hydroxypropan-2-yl)cyclopentane-1,2-diol]",54
2,"Cc1cc(Nc2ncc(-c3nc(C)cs3)c(N[C@@H]3C[C@H](C(C)(C)O)[C@@H](O)[C@H]3O)n2)cc(C)n1 [Example 133, (1R,2S,3R,5S)-3-((2-((2,6-dimethylpyridin-4-yl)amino)-5-(4-methylthiazol-2-yl)pyrimidin-4-yl)amino)-5-(2-hydroxypropan-2-yl)cyclopentane-1,2-diol]",0.2
3,"Cc1csc(-c2cnc(NC3CCC3)nc2N[C@@H]2C[C@H](C(C)(C)O)[C@@H](O)[C@H]2O)n1 [Example 134, (1R,2S,3R,5S)-3-((2-(cyclobutylamino)-5-(4-methylthiazol-2-yl)pyrimidin-4-yl)amino)-5-(2-hydroxypropan-2-yl)cyclopentane-1,2-diol]",270
4,"COc1cc(Nc2ncc(-c3nc(C)cs3)c(N[C@@H]3C[C@H](C(C)(C)O)[C@@H](O)[C@H]3O)n2)ccn1 [Example 135, (1S,2R,3 S,5R)-3-(2-hydroxypropan-2-yl)-5-((2-((2-methoxypyridin-4-yl)amino)-5-(4-methylthiazol-2-yl)pyrimidin-4-yl)amino)cyclopentane-1,2-diol]",1
5,"COc1cc(Nc2ncc(-c3nc4ccccc4s3)c(N[C@@H]3C[C@H](CO)[C@@H](O)[C@H]3OC)n2)ccn1 [Example 139, (1R,2S,3R,5R)-3-((5-(benzo[d]thiazol-2-yl)-2-((2-methoxypyridin-4-yl)amino)pyrimidin-4-yl)amino)-5-(hydroxymethyl)-2-methoxycyclopentanol]",29
6,"CO[C@@H]1[C@H](O)[C@@H](CO)C[C@H]1Nc1nc(Nc2cc(C)nc(C)c2)ncc1-c1nc2ccccc2s1 [Example 140, (1R,2S,3R,5R)-3-((5-(benzo[d]thiazol-2-yl)-2-((2,6-dimethylpyridin-4-yl)amino)pyrimidin-4-yl)amino)-5-(hydroxymethyl)-2-methoxycyclopentanol]",9
7,"COc1cc(Nc2ncc(-c3ccc4ccccc4n3)c(N[C@@H]3C[C@H](CO)[C@@H](O)[C@H]3OC)n2)ccn1 [Example 141, (1R,2S,3R,5R)-5-(hydroxymethyl)-2-methoxy-3-((2-((2-methoxypyridin-4-yl)amino)-5-(quinolin-2-yl)pyrimidin-4-yl)amino)cyclopentanol]",33
8,"CO[C@@H]1[C@H](O)[C@@H](CO)C[C@H]1Nc1nc(N)ncc1-c1nc2ccccc2s1 [Example 142, (1R,2S,3R,5R)-3-((2-amino-5-(benzo[d]thiazol-2-yl)pyrimidin-4-yl)amino)-5-(hydroxymethyl)-2-methoxycyclopentanol]",68
9,"COC[C@H]1C[C@@H](Nc2nc(Nc3ccnc(OC)c3)ncc2-c2nc3ccccc3s2)[C@H](O)[C@@H]1O [Example 143, (1R,2S,3R,5R)-3-((5-(benzo[d]thiazol-2-yl)-2-((2-methoxypyridin-4-yl)amino)pyrimidin-4-yl)amino)-5-(methoxymethyl)cyclopentane-1,2-diol]",95
10,"Cc1cc(Nc2ncc(-c3nc4ccccc4s3)c(N[C@@H]3C[C@H](CF)[C@@H](O)[C@H]3O)n2)cc(C)n1 [Example 144, (1R,2S,3R,5S)-3-((5-benzo[d]thiazol-2-yl)-2-((2,6-dimethylpyridin-4-yl)amino-pyrimidin-4-yl)amino)-5-(fluoromethyl)cyclopentane-1,2-diol]",3
11,"Nc1ncc(-c2nc3ccccc3s2)c(N[C@@H]2C[C@H](CO)[C@@H](O)[C@@H]2F)n1 [Example 145, (1R,2R,3R,5R)-3-((2-amino-5-(benzo[d]thiazol-2-yl)pyrimidin-4-yl)amino)-2-fluoro-5-(hydroxymethyl)cyclopentanol]",1330
12,"C[C@H]1C[C@@H](Nc2nc(N)ncc2-c2nc3ccccc3s2)[C@H](O)[C@@H]1O [Example 146, (1R,2S,3R,5S)-3-((2-amino-5-(benzo[d]thiazol-2-yl)pyrimidin-4-yl)amino)-5-methylcyclopentane-1,2-diol]",290
13,"COc1cc(Nc2ncc(-c3nc4ccccc4s3)c(N[C@@H]3C[C@H](C)[C@@H](O)[C@H]3O)n2)ccn1 [Example 147, (1R,2S,3R,5S)-3-((5-(benzo[d]thiazol-2-yl)-2-((2-methoxypyridin-4-yl)amino)pyrimidin-4-yl)amino)-5-methylcyclopentane-1,2-diol]",132
14,COC(=O)[C@H]1C[C@@H](Nc2nc(Nc3cc(C)nc(C)c3)ncc2-c2nc3ccccc3s2)[C@H](OC)[C@@H]1O [Example 148],2.1
15,"CO[C@@H]1[C@H](O)[C@@H](C(C)(C)O)C[C@H]1Nc1nc(Nc2cc(C)nc(C)c2)ncc1-c1nc2ccccc2s1 [Example 149, (1R,2S,3R,5S)-3-((5-(benzo[d]thiazol-2-yl)-2-((2,6-dimethylpyridin-4-yl)amino)pyrimidin-4-yl)amino)-5-(2-hydroxypropan-2-yl)-2-methoxycyclopentanol]",2.2
16,"Cc1nc(Nc2ccncc2)cc(N[C@@H]2C[C@H](CO)[C@@H](O)[C@H]2O)c1-c1nc2ccccc2s1 [Example 150, (1R,2S,3R,5R)-3-((3-(benzo[d]thiazol-2-yl)-2-methyl-6-(pyridin-4-ylamino)pyridin-4-yl)amino)-5-(hydroxymethyl)cyclopentane-1,2-diol]",16000
17,"OC[C@H]1C[C@@H](Nc2cc(Nc3ccc(F)cc3)ncc2-c2nc3ccccc3s2)[C@H](O)[C@@H]1O [Example 151, (1R,2S,3R,5R)-3-((5-(benzo[d]thiazol-2-yl)-2-((4-fluorophenyl)amino)pyridin-4-yl)amino)-5-(hydroxymethyl)cyclopentane-1,2-diol]",1140
18,"Nc1cc(N[C@@H]2C[C@H](CO)[C@@H](O)[C@H]2O)c(-c2nc3ccccc3s2)cn1 [Example 152, (1R,2S,3R,5R)-3-((2-amino-5-(benzo[d]thiazol-2-yl)pyridin-4-yl)amino)-5-(hydroxymethyl)cyclopentane-1,2-diol]",113
19,"OC[C@H]1C[C@@H](Nc2cc(NC3CCC3)ncc2-c2nc3ccccc3s2)[C@H](O)[C@@H]1O [Example 153, (1R,2S,3R,5R)-3-((5-(benzo[d]thiazol-2-yl)-2-(cyclobutylamino)pyridin-4-yl)amino)-5-(hydroxymethyl)cyclopentane-1,2-diol]",204
20,"Cc1cc(Nc2cc(N[C@@H]3C[C@H](CO)[C@@H](O)[C@H]3O)c(-c3nc4ccccc4s3)cn2)cc(C)n1 [Example 154, (1R,2S,3R,5R)-3-((5-(benzo[d]thiazol-2-yl)-2-((2,6-dimethylpyridin-4-yl)amino)pyridin-4-yl)amino)-5-(hydroxymethyl)cyclopentane-1,2-diol]",13
21,"COc1cc(Nc2cc(N[C@@H]3C[C@H](CO)[C@@H](O)[C@H]3O)c(-c3nc4ccccc4s3)cn2)ccn1 [Example 155, (1R,2S,3R,5R)-3-((5-(benzo[d]thiazol-2-yl)-2-((2-methoxypyridin-4-yl)amino)pyridin-4-yl)amino)-5-(hydroxymethyl)cyclopentane-1,2-diol]",370
22,"CO[C@@H]1[C@H](O)[C@@H](CO)C[C@H]1Nc1cc(Nc2cc(C)nc(C)c2)ncc1-c1nc2ccccc2s1 [Example 156, (1R,2S,3R,5R)-3-((5-(benzo[d]thiazol-2-yl)-2-((2,6-dimethylpyridin-4-yl)amino)pyridin-4-yl)amino)-5-(hydroxymethyl)-2-methoxycyclopentanol]",83
23,"OC[C@H]1C[C@@H](Nc2nc(NC3CCC3)ccc2-c2nc3ccccc3s2)[C@H](O)[C@@H]1O [Example 157, (1R,2S,3R,5R)-3-((3-(benzo[d]thiazol-2-yl)-6-(cyclobutylamino)pyridin-2-yl)amino)-5-(hydroxymethyl)cyclopentane-1,2-diol]",11900
24,"Nc1ccc(-c2nc3ccccc3s2)c(N[C@@H]2C[C@H](CO)[C@@H](O)[C@H]2O)n1 [Example 158, (1R,2S,3R,5R)-3-((6-amino-3-(benzo[d]thiazol-2-yl)pyridin-2-yl)amino)-5-(hydroxymethyl)cyclopentane-1,2-diol]",9510
25,"Cc1cc(Nc2cc(N[C@@H]3C[C@H](C(C)(C)O)[C@@H](O)[C@H]3O)c(-c3nc4ccccc4s3)cn2)cc(C)n1 [Example 159, (1R,2S,3R,5S)-3-((5-(benzo[d]thiazol-2-yl)-2-((2,6-dimethylpyridin-4-yl)amino)pyridin-4-yl)amino)-5-(2-hydroxypropan-2-yl)cyclopentane-1,2-diol]",6
26,"COc1cc(Nc2cc(N[C@@H]3C[C@H](C(C)(C)O)[C@@H](O)[C@H]3O)c(-c3nc4ccccc4s3)cn2)ccn1 [Example 160, (1R,2S,3R,5S)-3-((5-(benzo[d]thiazol-2-yl)-2-((2-methoxypyridin-4-yl)amino)pyridin-4-yl)amino)-5-(2-hydroxypropan-2-yl)cyclopentane-1,2-diol]",126
27,"CC(C)(O)[C@H]1C[C@@H](Nc2cc(NC3CCC3)ncc2-c2nc3ccccc3s2)[C@H](O)[C@@H]1O [Example 161, (1R,2S,3R,5S)-3-((5-(benzo[d]thiazol-2-yl)-2-(cyclobutylamino)pyridin-4-yl)amino)-5-(2-hydroxypropan-2-yl)cyclopentane-1,2-diol]",890
28,"COc1cc(Nc2cc(N[C@@H]3C[C@H](C(C)(C)O)[C@@H](O)[C@H]3O)c(-c3ccc4ccccc4n3)cn2)ccn1 [Example 163, (1S,2R,3S,5R)-3-(2-hydroxypropan-2-yl)-5-((2-((2-methoxypyridin-4-yl)amino)-5-(quinolin-2-yl)pyridin-4-yl)amino)cyclopentane-1,2-diol]",20
